{"source": "ChEMBL document CHEMBL5465560", "about": "“Selectivity Literature for EUbOPEN Chemogenomic Library” (2024)", "key": {"[1]": {"biological_target": "Bromodomain testis-specific protein (Homo sapiens) (UniProt Q58F21)", "test": "Selectivity interaction (Human bromodomain panel (DSF assay)) EUB0000233b BRDT"}, "[2]": {"biological_target": "Protein-tyrosine kinase 2-beta (Homo sapiens) (UniProt Q14289)", "sequence (Q14289 whole entry, looked up)": "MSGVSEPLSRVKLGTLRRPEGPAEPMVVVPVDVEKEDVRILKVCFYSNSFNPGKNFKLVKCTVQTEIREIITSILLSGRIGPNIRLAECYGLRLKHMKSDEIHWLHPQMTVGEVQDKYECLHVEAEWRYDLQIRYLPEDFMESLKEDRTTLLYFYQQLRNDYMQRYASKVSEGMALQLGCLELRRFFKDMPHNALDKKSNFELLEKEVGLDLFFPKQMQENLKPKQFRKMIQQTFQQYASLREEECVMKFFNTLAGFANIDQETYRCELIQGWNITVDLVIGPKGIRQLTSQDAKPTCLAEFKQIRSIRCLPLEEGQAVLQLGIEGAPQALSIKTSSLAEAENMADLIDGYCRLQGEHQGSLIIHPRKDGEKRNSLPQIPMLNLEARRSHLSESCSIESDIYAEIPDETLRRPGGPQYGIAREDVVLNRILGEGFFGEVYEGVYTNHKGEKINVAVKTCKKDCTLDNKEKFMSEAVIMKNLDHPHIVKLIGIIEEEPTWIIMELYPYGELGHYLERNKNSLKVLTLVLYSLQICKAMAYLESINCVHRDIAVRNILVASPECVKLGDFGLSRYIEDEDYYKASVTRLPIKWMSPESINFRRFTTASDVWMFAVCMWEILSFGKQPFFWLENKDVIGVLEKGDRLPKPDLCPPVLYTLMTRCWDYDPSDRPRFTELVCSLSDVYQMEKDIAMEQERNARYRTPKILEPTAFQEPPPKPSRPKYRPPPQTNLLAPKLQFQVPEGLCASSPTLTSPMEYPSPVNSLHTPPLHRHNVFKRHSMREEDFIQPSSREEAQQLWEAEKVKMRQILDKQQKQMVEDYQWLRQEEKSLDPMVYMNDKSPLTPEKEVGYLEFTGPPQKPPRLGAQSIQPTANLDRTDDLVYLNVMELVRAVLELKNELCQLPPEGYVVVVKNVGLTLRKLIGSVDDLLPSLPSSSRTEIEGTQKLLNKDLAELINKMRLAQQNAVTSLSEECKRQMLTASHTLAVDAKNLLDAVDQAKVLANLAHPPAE", "test": "Selectivity interaction (ActivX KiNativ screen (kinase selectivity in THP-1 cell lysates)) EUB0000639a PTK2B", "format": "subcellular", "details": "lysate, at 0.04 µM"}, "[3]": {"biological_target": "T1, Protein kinase C iota type (Homo sapiens) (UniProt P41743)", "T1 sequence (whole entry)": "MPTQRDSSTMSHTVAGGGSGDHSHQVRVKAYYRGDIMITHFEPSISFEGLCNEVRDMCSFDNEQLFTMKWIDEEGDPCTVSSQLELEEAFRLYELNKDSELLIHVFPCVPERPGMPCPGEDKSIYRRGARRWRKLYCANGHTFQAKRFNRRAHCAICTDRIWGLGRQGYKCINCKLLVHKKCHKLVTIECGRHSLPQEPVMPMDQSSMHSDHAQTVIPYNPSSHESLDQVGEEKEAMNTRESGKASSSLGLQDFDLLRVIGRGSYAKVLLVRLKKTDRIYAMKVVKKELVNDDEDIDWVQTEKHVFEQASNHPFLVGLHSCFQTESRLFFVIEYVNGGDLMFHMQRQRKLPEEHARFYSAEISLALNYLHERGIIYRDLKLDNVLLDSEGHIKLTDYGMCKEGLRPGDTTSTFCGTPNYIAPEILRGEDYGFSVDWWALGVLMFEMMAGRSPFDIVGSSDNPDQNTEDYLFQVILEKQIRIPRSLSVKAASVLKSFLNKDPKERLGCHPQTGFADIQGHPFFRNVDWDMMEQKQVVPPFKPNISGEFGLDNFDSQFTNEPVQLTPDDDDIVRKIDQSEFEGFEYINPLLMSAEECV", "test": "Selectivity interaction (ActivX KiNativ screen (kinase selectivity in THP-1 cell lysates)) EUB0000639a PRKCI", "format": "subcellular", "details": "lysate, at 0.01 µM"}, "[4]": {"biological_target": "Serine/threonine-protein kinase WNK1 (Homo sapiens) (UniProt Q9H4A3)", "test": "Selectivity interaction (ActivX KiNativ screen (kinase selectivity in THP-1 cell lysates)) EUB0000639a WNK1", "format": "subcellular", "details": "lysate, at 0.2 µM"}, "[5]": {"biological_target": "MAP kinase-activated protein kinase 3 (Homo sapiens) (UniProt Q16644)", "sequence (Q16644 whole entry, looked up)": "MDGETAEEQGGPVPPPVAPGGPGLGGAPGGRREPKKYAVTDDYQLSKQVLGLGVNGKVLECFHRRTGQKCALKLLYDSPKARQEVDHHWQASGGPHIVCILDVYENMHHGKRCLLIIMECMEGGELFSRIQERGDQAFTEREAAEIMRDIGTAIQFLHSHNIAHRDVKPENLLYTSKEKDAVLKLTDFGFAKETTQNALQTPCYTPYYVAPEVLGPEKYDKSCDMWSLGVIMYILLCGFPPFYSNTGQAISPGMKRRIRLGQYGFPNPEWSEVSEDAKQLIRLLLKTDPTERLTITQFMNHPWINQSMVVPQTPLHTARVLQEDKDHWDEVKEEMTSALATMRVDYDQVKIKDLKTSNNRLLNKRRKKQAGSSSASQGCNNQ", "test": "Selectivity interaction (Kinase panel (Invitrogen)) EUB0000639a MAPKAPK3", "details": "at 200 nM"}, "[6]": {"biological_target": "Serine/threonine-protein kinase mTOR (Homo sapiens, UniProt P42345)", "test": "Selectivity interaction (ActivX KiNativ screen (kinase selectivity in THP-1 cell lysates)) EUB0000639a MTOR", "format": "subcellular", "details": "lysate"}, "[7]": {"biological_target": "T2, NUAK family SNF1-like kinase 1 (Homo sapiens) (UniProt O60285)", "T2 sequence (whole entry)": "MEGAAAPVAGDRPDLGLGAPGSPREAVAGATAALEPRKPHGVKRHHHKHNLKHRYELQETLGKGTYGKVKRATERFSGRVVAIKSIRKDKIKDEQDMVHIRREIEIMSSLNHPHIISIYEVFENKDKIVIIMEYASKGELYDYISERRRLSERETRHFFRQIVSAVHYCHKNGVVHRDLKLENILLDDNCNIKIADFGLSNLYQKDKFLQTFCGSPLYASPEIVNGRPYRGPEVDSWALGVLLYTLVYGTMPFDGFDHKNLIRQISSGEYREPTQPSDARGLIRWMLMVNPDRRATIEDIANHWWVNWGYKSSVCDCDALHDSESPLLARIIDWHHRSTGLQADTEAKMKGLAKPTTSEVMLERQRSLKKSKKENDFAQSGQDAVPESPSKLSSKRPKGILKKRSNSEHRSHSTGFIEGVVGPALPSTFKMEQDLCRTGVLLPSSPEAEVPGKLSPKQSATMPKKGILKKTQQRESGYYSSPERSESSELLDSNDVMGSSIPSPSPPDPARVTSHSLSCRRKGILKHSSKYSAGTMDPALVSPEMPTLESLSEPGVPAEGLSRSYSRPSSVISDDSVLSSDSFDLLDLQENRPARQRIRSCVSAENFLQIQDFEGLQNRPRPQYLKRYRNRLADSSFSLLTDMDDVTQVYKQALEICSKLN", "test": "Selectivity interaction (KinomeScan (DiscoverX)) EUB0000595a NUAK1", "details": "at 10 µM"}, "[8]": {"biological_target": "5'-AMP-activated protein kinase catalytic subunit alpha-2 (Homo sapiens) (UniProt P54646)", "sequence (P54646 whole entry, looked up)": "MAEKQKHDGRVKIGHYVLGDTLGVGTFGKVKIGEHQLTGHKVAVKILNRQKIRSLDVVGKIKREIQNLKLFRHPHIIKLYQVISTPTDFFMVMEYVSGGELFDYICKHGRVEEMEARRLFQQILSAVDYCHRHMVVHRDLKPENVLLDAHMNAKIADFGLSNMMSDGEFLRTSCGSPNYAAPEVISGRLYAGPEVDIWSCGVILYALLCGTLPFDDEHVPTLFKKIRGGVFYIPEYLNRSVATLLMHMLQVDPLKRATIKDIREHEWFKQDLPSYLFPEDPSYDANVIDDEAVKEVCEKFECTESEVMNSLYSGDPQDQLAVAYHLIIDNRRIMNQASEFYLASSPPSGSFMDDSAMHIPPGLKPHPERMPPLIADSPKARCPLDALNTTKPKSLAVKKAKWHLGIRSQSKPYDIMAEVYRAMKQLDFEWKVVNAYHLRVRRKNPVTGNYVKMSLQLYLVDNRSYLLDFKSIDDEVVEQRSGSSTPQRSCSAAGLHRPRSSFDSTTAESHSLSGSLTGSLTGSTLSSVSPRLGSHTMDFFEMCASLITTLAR", "test": "Selectivity interaction (KinomeScan (DiscoverX)) EUB0000618a PRKAA2", "details": "at 10 µM"}, "[9]": {"biological_target": "Tyrosine-protein kinase JAK1 (Homo sapiens, UniProt P23458)", "sequence (P23458 whole entry)": "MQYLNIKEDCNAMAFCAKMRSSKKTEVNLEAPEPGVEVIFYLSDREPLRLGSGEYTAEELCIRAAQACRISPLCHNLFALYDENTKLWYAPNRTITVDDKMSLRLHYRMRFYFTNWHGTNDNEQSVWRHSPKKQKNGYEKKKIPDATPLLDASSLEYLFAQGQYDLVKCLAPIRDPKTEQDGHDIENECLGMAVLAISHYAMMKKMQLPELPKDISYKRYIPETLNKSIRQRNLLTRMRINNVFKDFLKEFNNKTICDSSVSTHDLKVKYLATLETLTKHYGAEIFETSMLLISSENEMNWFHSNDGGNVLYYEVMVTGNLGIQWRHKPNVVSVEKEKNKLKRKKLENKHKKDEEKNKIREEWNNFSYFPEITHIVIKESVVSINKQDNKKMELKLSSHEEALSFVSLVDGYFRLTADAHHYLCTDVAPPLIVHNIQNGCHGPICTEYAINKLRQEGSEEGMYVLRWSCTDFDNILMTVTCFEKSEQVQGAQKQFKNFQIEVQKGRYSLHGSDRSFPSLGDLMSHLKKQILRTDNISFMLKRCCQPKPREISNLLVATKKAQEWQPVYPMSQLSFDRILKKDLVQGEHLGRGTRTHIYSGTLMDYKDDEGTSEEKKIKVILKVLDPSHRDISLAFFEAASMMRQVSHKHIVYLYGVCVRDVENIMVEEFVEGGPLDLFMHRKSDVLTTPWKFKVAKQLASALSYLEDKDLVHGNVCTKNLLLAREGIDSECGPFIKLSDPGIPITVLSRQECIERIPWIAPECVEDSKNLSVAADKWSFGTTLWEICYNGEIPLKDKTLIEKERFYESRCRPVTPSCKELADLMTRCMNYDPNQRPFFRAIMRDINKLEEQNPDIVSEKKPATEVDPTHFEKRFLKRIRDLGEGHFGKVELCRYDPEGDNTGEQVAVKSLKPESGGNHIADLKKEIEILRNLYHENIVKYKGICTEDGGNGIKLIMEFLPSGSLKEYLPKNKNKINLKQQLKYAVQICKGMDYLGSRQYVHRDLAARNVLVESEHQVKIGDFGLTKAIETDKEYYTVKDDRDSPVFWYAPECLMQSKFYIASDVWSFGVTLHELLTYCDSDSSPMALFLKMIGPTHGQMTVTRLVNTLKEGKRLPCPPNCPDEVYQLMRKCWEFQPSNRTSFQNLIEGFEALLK", "test": "Selectivity interaction (ActivX KiNativ screen (ex vivo kinase selectivity in human PBMCs)) EUB0001619a JAK1", "format": "cell-based", "details": "PBMC, at 1 µM"}, "[10]": {"biological_target": "Serine/threonine-protein kinase Nek6 (Homo sapiens) (UniProt Q9HC98)", "sequence (Q9HC98 whole entry)": "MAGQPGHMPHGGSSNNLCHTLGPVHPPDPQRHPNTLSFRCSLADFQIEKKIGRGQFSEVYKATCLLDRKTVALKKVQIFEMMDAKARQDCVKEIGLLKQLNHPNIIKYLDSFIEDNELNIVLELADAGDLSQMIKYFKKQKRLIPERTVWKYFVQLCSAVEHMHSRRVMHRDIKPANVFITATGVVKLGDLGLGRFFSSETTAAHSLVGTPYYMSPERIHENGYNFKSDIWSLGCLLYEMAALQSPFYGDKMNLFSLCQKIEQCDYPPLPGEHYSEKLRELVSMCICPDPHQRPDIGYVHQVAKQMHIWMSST", "test": "Selectivity interaction (SelectScreen profiling (Invitrogen)) EUB0000607a NEK6", "details": "at 2 µM"}, "[11]": {"biological_target": "T3, Activin receptor type-1B (Homo sapiens) (UniProt P36896)", "T3 sequence (whole entry)": "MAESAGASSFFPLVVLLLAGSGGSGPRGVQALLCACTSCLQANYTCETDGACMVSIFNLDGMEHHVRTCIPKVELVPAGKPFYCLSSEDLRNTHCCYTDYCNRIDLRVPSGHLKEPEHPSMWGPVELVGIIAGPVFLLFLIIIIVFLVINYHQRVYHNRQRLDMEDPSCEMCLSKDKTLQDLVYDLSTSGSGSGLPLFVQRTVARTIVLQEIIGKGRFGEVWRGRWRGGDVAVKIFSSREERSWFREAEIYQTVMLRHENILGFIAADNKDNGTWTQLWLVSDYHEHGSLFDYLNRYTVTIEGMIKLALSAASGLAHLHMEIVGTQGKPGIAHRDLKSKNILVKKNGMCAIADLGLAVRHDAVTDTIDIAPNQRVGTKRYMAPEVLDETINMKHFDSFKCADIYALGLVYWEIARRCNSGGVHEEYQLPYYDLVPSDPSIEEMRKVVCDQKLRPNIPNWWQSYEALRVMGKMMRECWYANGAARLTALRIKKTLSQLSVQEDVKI", "test": "Selectivity interaction (ProQinase) EUB0000171b ACVR1B"}, "[12]": {"biological_target": "Mitotic checkpoint serine/threonine-protein kinase BUB1 beta (Homo sapiens) (UniProt O60566)", "sequence (O60566 whole entry)": "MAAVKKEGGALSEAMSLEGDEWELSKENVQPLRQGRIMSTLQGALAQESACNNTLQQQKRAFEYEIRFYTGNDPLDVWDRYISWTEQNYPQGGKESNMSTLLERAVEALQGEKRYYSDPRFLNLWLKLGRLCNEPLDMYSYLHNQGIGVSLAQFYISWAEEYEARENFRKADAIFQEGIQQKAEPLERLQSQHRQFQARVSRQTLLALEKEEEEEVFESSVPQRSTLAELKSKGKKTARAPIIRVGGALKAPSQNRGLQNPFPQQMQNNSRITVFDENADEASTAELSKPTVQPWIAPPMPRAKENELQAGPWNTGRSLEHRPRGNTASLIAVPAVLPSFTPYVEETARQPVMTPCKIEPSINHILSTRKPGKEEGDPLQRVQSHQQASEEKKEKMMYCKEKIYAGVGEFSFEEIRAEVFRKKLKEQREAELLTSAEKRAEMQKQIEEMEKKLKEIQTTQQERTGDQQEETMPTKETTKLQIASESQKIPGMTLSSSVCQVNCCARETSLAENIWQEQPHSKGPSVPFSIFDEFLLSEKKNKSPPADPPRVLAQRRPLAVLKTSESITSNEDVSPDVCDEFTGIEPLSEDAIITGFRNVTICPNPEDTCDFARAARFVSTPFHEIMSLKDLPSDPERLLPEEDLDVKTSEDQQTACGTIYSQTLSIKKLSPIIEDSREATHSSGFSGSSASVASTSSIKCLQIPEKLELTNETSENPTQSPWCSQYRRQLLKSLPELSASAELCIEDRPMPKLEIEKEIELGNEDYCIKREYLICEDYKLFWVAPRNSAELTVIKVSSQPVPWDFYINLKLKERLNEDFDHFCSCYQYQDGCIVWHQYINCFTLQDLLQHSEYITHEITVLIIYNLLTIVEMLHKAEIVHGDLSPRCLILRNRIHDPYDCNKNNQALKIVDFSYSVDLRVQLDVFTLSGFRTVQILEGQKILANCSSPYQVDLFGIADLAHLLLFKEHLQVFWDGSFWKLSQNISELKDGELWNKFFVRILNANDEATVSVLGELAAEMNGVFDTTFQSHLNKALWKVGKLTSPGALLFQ", "test": "Selectivity interaction (ProQinase) EUB0000171b BUB1B"}}, "data": [{"smiles": "CN(C)CCCOc1ccc(-c2cc(NCCCn3cccn3)nc(S(C)(=O)=O)n2)cc1", "values": [{"measurement": "dTM", "setting": "[1]", "result": "< 2", "unit": "K"}]}, {"smiles": "CC[C@@H]1[C@H](F)C(=O)N[C@@H]1COc1nccc2cc(C(N)=O)c(OC)cc12", "note": "[ZIMLOVISERTIB]", "values": [{"measurement": "% of inhibition", "setting": "[2]", "result": 6.6, "unit": "%"}, {"measurement": "% of inhibition", "setting": "[3]", "result": -6.4, "unit": "%"}, {"measurement": "% of inhibition", "setting": "[4]", "result": -12, "unit": "%"}, {"measurement": "% of inhibition", "setting": "[5]", "result": 3.83, "unit": "%"}, {"measurement": "% of inhibition", "setting": "[6]; at 0.01 µM", "result": 8, "unit": "%"}, {"measurement": "% of inhibition", "setting": "[6]; at 0.04 µM", "result": 3, "unit": "%"}, {"measurement": "% of inhibition", "setting": "[6]; at 0.2 µM", "result": 4.3, "unit": "%"}, {"measurement": "% of inhibition", "setting": "[6]; at 1 µM", "result": 9.9, "unit": "%"}, {"measurement": "% of inhibition", "setting": "[6]; at 5 µM", "result": -4.7, "unit": "%"}]}, {"smiles": "COCC(=O)NC/C=C/c1ccc2ncnc(Nc3ccc(Oc4ccc(C)nc4)c(C)c3)c2c1", "note": "[CP-724714]", "values": [{"measurement": "% of control", "setting": "[7]", "result": 100, "unit": "%"}]}, {"smiles": "O[C@H]1CC[C@H](Nc2ncc3nc(Nc4c(F)cc(F)cc4F)n([C@H]4CCOC4)c3n2)CC1", "values": [{"measurement": "% of control", "setting": "[8]", "result": 100, "unit": "%"}]}, {"smiles": "N#Cc1cccc(-c2c[nH]c3ncnc(N4CCOCC4)c23)c1", "values": [{"measurement": "% of inhibition", "setting": "[9]", "result": 5, "unit": "%"}]}, {"smiles": "CNC(=O)Nc1ccc(-c2nc(N3CC4CCC(C3)O4)c3cnn(C4CCC5(CC4)OCCO5)c3n2)cc1", "values": [{"measurement": "% of inhibition", "setting": "[10]", "result": 12, "unit": "%"}]}, {"smiles": "C=CC(=O)Nc1cccc(C(=O)Nc2ccc(Nc3cc(-c4[nH]c(SC)nc4C)ccn3)cc2)c1", "values": [{"measurement": "% of control", "setting": "[11]; at 1 µM", "result": 94, "unit": "%"}, {"measurement": "% of control", "setting": "[11]; at 5 µM", "result": 94, "unit": "%"}, {"measurement": "% of control", "setting": "[12]; at 1 µM", "result": 95, "unit": "%"}, {"measurement": "% of control", "setting": "[12]; at 5 µM", "result": 80, "unit": "%"}]}]}
